According to a melting point compilation (Tetko et al.; mined from patent text by program, amines drawn as free bases though some values may be those of a salt):

melting point [°C] | SMILES
272 | CC(C)N1CCN(c2ccc(-c3[nH]nc4c3C(=O)c3c(NC(=O)NN5CCN(C)CC5)cccc3-4)cc2)CC1
165 | CCSc1nccn1-c1ccc(O)cc1
119 to 120 | Cc1oc(-c2ccccc2)nc1CCOc1ccc(C#N)cc1
46 to 48 | C=CCNC(=S)n1nc(Oc2ncc(C(F)(F)F)cc2Cl)cc1C
118 to 119 | Cc1ccc(C)n1-c1cc(F)c(C2=CCSCC2)c(F)c1
231 to 233 | Cn1nc(-c2nc(S(C)(=O)=O)c(N)nc2-c2ccccc2)ccc1=O
207 to 208 | O=C(O)c1cc(-c2ccc(OCc3ccccc3)cc2)nn1Cc1ccccc1
81 to 84 | COC=C(C(=O)OC)c1ccc(CC(=O)O)cc1
91 to 93 | Cn1nc(C(F)(F)F)cc1Oc1cccc(-c2nc(C(F)(F)F)no2)n1
83.5 to 84 | CS(=O)(=O)N[C@@H](CCCCNC(=O)OCc1ccccc1)C(=O)O
168 to 170 | CCOC(=O)c1c(N)nc(C)c(NC(C)=O)c1C
306 to 308 | Cn1c(=O)c2c(nc(C=Cc3cccc([N+](=O)[O-])c3)n2C)n(C)c1=O
173 to 175 | O=C(Nc1ccc(Cl)cc1)N1CC(c2ccccc2)C(c2ccc(Cl)cc2)=N1 (centres undefined)
93 to 95 | CCOc1ccc(-n2c(C(F)(F)F)nn(C)c2=S)cc1
224 | Cc1cccc(-c2[nH]nnc2-c2ccc3c(c2)NC(=O)CO3)n1
50 to 56 | Cc1cc(-c2cccc(C(=O)CC(=O)OC(C)(C)C)c2)on1
102 to 104 | CC(=O)c1nc2ccc(OC(C)C)cc2cc1OCc1ccccc1
161 to 163 | O=C(O)C#Cc1ccc(Cl)cc1Cl
102 | CCOC(=O)C(C(=O)OCC)c1c(Cl)cnc2c([N+](=O)[O-])cccc12
165 | CC(C)(C)NCC(O)COc1ccc2c(=O)cc(-c3ccc(O)c(O)c3)oc2c1 (centres undefined)
197 to 198 | OCC(=C(c1ccc(F)cc1)c1ccc(F)cc1)n1nnnc1-c1ccccc1
276 to 280 | O=C1CCn2ncnc2N1
84 to 86 | CCCCN(CCCC)S(=O)(=O)c1ccc(-n2oc(C)cc2=O)c([N+](=O)[O-])c1
195 to 200 | O=C(O)c1ccc(N(CCn2ccnc2)c2ccc(F)cc2)cc1-c1ccc(F)cc1
156 to 158 | COC(=O)C1=C(CCc2ccccc2OC)NC(CC(=O)N2CCN(CCCN(C)C)CC2)=C(C(=O)OC)C1c1c(Cl)cccc1Cl (centres undefined)

melting point [°C] | SMILES
135 to 137 | c1ccc(Cc2cnc(N3CCN(c4nc(-c5ccccc5)nc5ccccc45)CC3)nc2)cc1
29 to 30 | CCCCCc1ccc(CCCCCC(=O)O)cc1
111 to 113 | CC(C)(C)Sc1ccc(CC=CN(O)C(N)=O)s1
104 | CC(=O)c1ccc2ccccc2c1OCCCC(=O)O
133 to 135 | C=CCc1nc(SC)nc2ccccc12
202 to 205 | Nc1ncnc2c1ncn2Cc1oc2ccccc2c(=O)c1-c1ccccc1F
65 to 66 | Cc1ccc(C2COc3c(C)c(C)cc(C)c32)cc1 (centres undefined)
117 to 118 | CC(=O)c1ccc(OCc2cccc([N+](=O)[O-])c2)cc1O
99 to 100 | CC(=O)c1ccc(OCCC2CCN(c3cc(Cl)nnc3Cl)CC2)cc1
155 to 159 | O=C(N[C@H](CC1CCCCC1)CN1CCN(c2nccc3ccccc23)CC1)C1CCCCC1
168 to 170 | O=c1ccn(Cc2ccccc2)c(=O)[nH]1
169 to 172 | Nc1nc(-c2ccccc2)nc2c1ncc(=O)n2C1CC(O)C(CO)O1 (centres undefined)
163 to 165 | COC1(c2cccc(S(=O)(=O)c3ccc4c(c3)oc(=O)n4C)c2)CCOCC1
117 | CCOC(=O)N1CCN(Cc2nc3cccnc3n2CCO)CC1
125 to 126 | Cc1ccc(S(=O)(=O)OC[C@H]2CC[C@@H](COS(=O)(=O)c3ccc(C)cc3)O2)cc1
222 to 224 | CC(C)(C)n1cc(-c2ccc(S(=O)(=O)c3ccccc3)cc2)c2c(N)ncnc21
114 to 116 | OCc1nccc(N2CCCC2)n1
184 to 186 | COC1=CC(=O)C(Br)=CC1=O
148 to 150 | CC(=O)N1CCC1CC(=O)O (centres undefined)
94 to 95 | C/C(=C\C=O)c1ccc(OCc2nc(-c3ccccc3)oc2C)cc1
153 to 155 | CCOC(=O)Cc1ccc(-c2nc(COc3ccc(COc4nn(-c5ccccc5)cc4/C=C/c4csc(C)n4)cc3OC)c(C)o2)cc1
170 to 172 | Clc1ccc(-c2c(CC3NCCS3)cnn2-c2ccccc2)cc1 (centres undefined)
167 to 169 | O=C(C=CC=C(c1ccccc1)c1ccccc1)NCCCCCC(=O)NO
172 to 174 | O=C(c1ccc(C2CCCCC2)cc1)N1Cc2ccc(C(=O)C(Cl)(Cl)Cl)n2Cc2ccccc21
192 to 194 | NC(=O)c1sc2nc(N3CCC(NCC(O)c4ccccc4F)CC3)cc(C(F)(F)F)c2c1N (centres undefined)

melting point [°C] | SMILES
246 | CCCCN1CC(=O)N2[C@@H](c3ccc(NC(C)=O)cc3)c3[nH]c4ccccc4c3C[C@@H]2C1=O (relative stereo)
121 to 127 | Cc1c(Cc2ccccc2)c(=O)n(Cc2ccccc2)c2cc(OCC(=O)NO)cc(OCC(=O)NO)c12
54.5 to 55.5 | c1ccc(Oc2ccc(OCCCn3ccnc3)cc2)cc1
82 | Cc1cc(C)cc(N(CCCC(N)=O)Cc2ccc3nc(NCCCN4CCOCC4)n(Cc4cccc(Br)n4)c3c2)c1
81 to 82 | COc1cc(OCc2ccccn2)ccc1C=CC(=O)CC(C)=O
90.5 to 91.5 | CC(C)(C)OC(=O)N1CCN(C(=O)OCc2ccccc2)CC1
81 to 83 | O=C(c1ccc(Cl)cc1)c1cc(CBr)ccc1Cl
83 to 85 | CCN(CC)S(=O)(=O)c1cc(Cl)c(Cl)c(Cl)c1SCSC#N
120 | COC(=O)C(C)Oc1ccc(N(C)c2nnc3cc(Cl)ccc3n2)cc1 (centres undefined)
179 to 180 | COc1ccc(C(=O)Nc2ccccc2)cc1NC(=S)Nc1ccc(Cl)cc1
169 to 170 | CCCC(=O)c1cnc2c(C)cccc2c1Nc1ccc(Cl)cc1Cl
225 to 226 | Cn1cc(Nc2nc(N3CCOCC3)nc(-n3c(C(F)F)nc4ccccc43)n2)cn1
194 to 196 | COCCc1nc2c(N)nc3ccccc3c2n1CCCNC(=O)N1CCOCC1
144 to 145 | CNc1nc(-c2ccco2)c2ncn(Cc3ccc(OC)cc3)c2n1
54 to 55 | CCC(=O)c1cc(Cl)ccc1NS(=O)(=O)C(F)(F)F
155 | NS(=O)(=O)c1cc(CO)cc(N2CCCC2)c1Oc1ccccc1
212 to 214 | Cc1[nH]c(=O)c(C#N)cc1C(=O)CBr
140 to 141 | COC(=O)C(Cc1cccs1)NC(=O)[C@H](Cc1cccc2ccccc12)NC(=O)OCc1ccccc1 (mixture of isomers)
140 to 142 | O=C1CC(C(=O)O)N(C(=O)CCS)N1 (centres undefined)
172 to 174 | Cc1ccc2[nH]c(C(=O)OC(C)C)c(Sc3ccc(Cl)cc3)c2c1
120 to 122 | COCc1ccc(C[C@@H]2O[C@H](COC(C)=O)[C@@H](OC(C)=O)[C@H](OC(C)=O)[C@H]2OC(C)=O)cc1
158 | COC(=O)c1nc(Cl)nc(N)c1OC
77 to 79 | N#Cc1c(-c2ccc(OCc3ccccc3)cc2)cn(-c2cccc(OCCCl)c2)c1N
244 to 247 | CCCOc1ccc(-c2ccc3c(c2)C=C(C(=O)Nc2ccc(CN(C)C4CCOCC4)cc2)CCS3(=O)=O)cc1
85 to 86 | O=c1cc(C2CCCCC2)oc2ccc(OCCCCCN3CCC(O)CC3)cc12

melting point [°C] | SMILES
72 to 75 | CCCCCCCCCCCCCCCCCCOc1cc(O)cc(C(=O)OCc2ccccc2)c1
190 | CC(Cl)c1nc2c(c(=O)n(C)c(=O)n2C)n1C (centres undefined)
119 to 121 | CCC(O)(c1ccc(F)cc1)c1ccc(OCCCN2CCN(Cc3ccccc3)CC2)cc1 (centres undefined)
177 to 178 | C=C(C(=O)Nc1ccc(CCc2nnco2)cc1)c1cnn(C)c1-c1ccc(F)cc1
213 to 216 | O=C(NC(=O)c1c(F)cccc1Cl)Nc1ccc(S(=O)C(F)(F)C(F)F)cc1F (centres undefined)
82 to 85 | Cc1ccc(C(c2cc(C(C)(C)C)cc(C(C)(C)C)c2O)N(C)C)cc1C (centres undefined)
222 to 223 | NC(=O)c1cc2c(OCCCN3CCN(C(c4ccccc4)c4ccccc4)CC3)cccc2[nH]1
141 to 142 | O=C(OCC1c2ccccc2-c2ccccc21)N1Cc2cccn2Cc2ccccc21
69 to 72 | CC(O)c1cc(Br)c(N)c(CN(C)C)c1 (centres undefined)
> 300 | O=C(O)Cc1ccc2oc(-c3ccc(N4C=CC=CN4c4ccc(-c5nc6cc(CC(=O)O)ccc6o5)cc4)cc3)nc2c1
171 to 173 | O=C1CCC(N2C(=O)c3cccc(NCc4ccco4)c3C2=O)C(=O)N1 (centres undefined)
85 to 86 | CC(=O)OC(C)c1ccc(C=C(C)c2ccc3c(c2)C(C)(C)CCC3(C)C)cc1 (centres undefined)
187 to 189 | O=C(O)Cc1ccc2c(c1)C(=O)c1cc(Cl)ccc1CS2
73 to 74 | CCOc1nccc(Cl)c1NC(=O)OC(C)(C)C
212 to 213 | CNC(=O)Nc1n[nH]c(-c2ccncc2)c1-c1ccc(F)cc1
66 to 77 | O=C(Cc1ccccc1)NCC(=O)c1ccccc1
175 to 180 | COc1ccc(CN2Cc3cc(N(C)C)ccc3N=C2N)cc1
155 to 156 | CCC(C)SC1=C(C#N)C(c2ccccc2)(c2ccccc2)C(=O)N1 (centres undefined)
192 to 193 | O=C(O)c1cccc(-c2ccc3c(c2)C(c2ccc(Cl)cc2Cl)CO3)c1 (centres undefined)
137 to 138 | CCC1CCCCN1C(=O)Nc1ccccc1CCc1cc(C(C)(C)C)c(O)c(C(C)(C)C)c1 (centres undefined)
141 to 142 | COC(=O)c1c(Br)c(Cl)cc2nn(C)cc12
68 to 70 | O=C(NCCNCCNC(=O)C(F)(F)F)C(F)(F)F

SMILES | melting point [°C]
C1=NCc2cncn2-c2ccccc21 | 150 to 151
c1ccc2c(N3CCNCC3)n[nH]c2c1 | 139 to 150
